Assay results reported in patent US20030008331A1, “Directed evolution biosensors” (priority 1998, published 2003).

Test system: cells which do not express the β2-adrenergic receptor (wild type)
Assay: melanophore pigment dispersion assay, wild type cells
Format: cell-based, frog
Conditions: wild type melanophores, two successive tests

Structure (SMILES): CC(C)(C)NCC(O)c1ccc(O)c(CO)c1 (stereo not shown) [salbutamol]
- response of cells to challenge: did not respond
